Assay results: ChEMBL document CHEMBL1201862, “PubChem BioAssay data set” (2004)
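Method: 48-hour compound exposure of cells in 96-well plates, five concentrations, linear interpolation of endpoints. GI50 is the concentration that inhibits growth by half.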 Activity calls are given as the source filed them. Cut-off read from the data, not from the text of the source: active = GI50 up to about 1.1 µM and inactive = higher.

Assays:
Assay in all cases: NCI tumour cell line growth inhibition, 48 h
CAKI-1 = tested on: CAKI-1
CCRF-CEM = tested on: CCRF-CEM
COLO 205 = tested on: COLO 205
DU-145 = tested on: DU-145
EKVX = tested on: EKVX
HOP-62 = tested on: HOP-62
HOP-92 = tested on: HOP-92
IGROV-1 = tested on: IGROV-1
K562 = tested on: K562
LOX IMVI = tested on: LOX IMVI
MOLT-4 = tested on: MOLT-4
Malme-3M = tested on: Malme-3M
OVCAR-3 = tested on: OVCAR-3
OVCAR-4 = tested on: OVCAR-4
SF-268 = tested on: SF-268
SF-539 = tested on: SF-539
SK-MEL-28 = tested on: SK-MEL-28
SN12C = tested on: SN12C
UO-31 = tested on: UO-31
RXF 393 = tested on: RXF 393

Measured: GI50

COc1ccc(N/N=C2\CCOc3ccc(C)cc3C2=O)cc1
inactive: CAKI-1 27.9 µM | CCRF-CEM 16.3 µM | COLO 205 23.4 µM | DU-145 51.3 µM | EKVX 21.3 µM | HOP-62 39.2 µM | HOP-92 18.1 µM | IGROV-1 17.7 µM | K562 4.43 µM | LOX IMVI 12.4 µM | MOLT-4 11.1 µM | Malme-3M 11.1 µM | OVCAR-3 43.2 µM | OVCAR-4 14.5 µM | SF-268 35.5 µM | SF-539 40.6 µM | SK-MEL-28 32.3 µM | SN12C 40.6 µM | UO-31 24 µM

CC1(C)C[C@H](O)[C@H](O)[C@]23C(=O)O[C@H](O)[C@H]2C(C=O)=CC[C@@H]13
inactive: CAKI-1 > 100 µM | CCRF-CEM > 100 µM | COLO 205 > 100 µM | DU-145 > 100 µM | EKVX > 100 µM | HOP-62 > 100 µM | IGROV-1 > 100 µM | K562 > 100 µM | LOX IMVI > 100 µM | MOLT-4 > 100 µM | Malme-3M > 100 µM | OVCAR-3 > 100 µM | RXF 393 > 100 µM | SF-268 > 100 µM | SF-539 > 100 µM | SK-MEL-28 > 100 µM | SN12C > 100 µM | UO-31 > 100 µM

CC(=O)NC1C(OCc2ccccc2)OC(CO)C(O)C1OC(C)C(=O)NC(C(=O)N[C@@H](CCC(=O)NCCNCCNc1c2ccccc2nc2cccc([N+](=O)[O-])c12)C(N)=O)C(C)C (some centres not stated)
active: K562 0.0158 µM
inactive: CAKI-1 30.3 µM | CCRF-CEM 17.8 µM | COLO 205 20.1 µM | DU-145 33 µM | HOP-62 30.1 µM | HOP-92 18.2 µM | IGROV-1 33.6 µM | LOX IMVI 29.2 µM | MOLT-4 23.6 µM | Malme-3M 36.2 µM | OVCAR-3 25.8 µM | OVCAR-4 29.2 µM | SF-268 36.1 µM | SF-539 14.9 µM | SK-MEL-28 41.4 µM | SN12C 20.9 µM | UO-31 21.7 µM

CC(C)[C@H]1NC(=O)[C@H]2N=C(S[C@H]2C)[C@@H]2CCCN2C(=O)[C@H](Cc2ccccc2)NC(=O)[C@@H]2CSC(=N2)[C@@H](Cc2ccccc2)NC(=O)[C@@H]2CSC1=N2
inactive: CAKI-1 > 50 µM | CCRF-CEM 12.3 µM | COLO 205 16.1 µM | DU-145 > 50 µM | EKVX 27.5 µM | HOP-62 > 50 µM | IGROV-1 29 µM | K562 4.71 µM | LOX IMVI 29.7 µM | MOLT-4 11.6 µM | Malme-3M > 50 µM | OVCAR-3 20 µM | OVCAR-4 10.9 µM | RXF 393 15.9 µM | SF-268 45.6 µM | SF-539 22.3 µM | SK-MEL-28 14.1 µM | SN12C 40.2 µM | UO-31 21.8 µM

COc1ccc(-n2nnc(C(N)=O)c2O)cc1
inactive: CAKI-1 > 100 µM | CCRF-CEM > 100 µM | COLO 205 > 100 µM | DU-145 > 100 µM | EKVX > 100 µM | HOP-62 > 100 µM | IGROV-1 > 100 µM | K562 > 100 µM | LOX IMVI > 100 µM | MOLT-4 > 100 µM | Malme-3M 91 µM | OVCAR-4 > 100 µM | RXF 393 > 100 µM | SF-268 > 100 µM | SK-MEL-28 > 100 µM | SN12C > 100 µM | UO-31 32.3 µM
active: OVCAR-3 0.0187 µM
